Experiments:
lung elastin degradation = test: D/I levels in plasma, urine and sputum of COPD patients before and after Tiotropium, by LC/MS; assay type: in vivo, human
Description: The mass spectrometric method was used for direct measurement of D/I in urine, plasma and sputum as markers of elastin degradation in healthy controls, patients with α1-antitrypsin deficiency (AATD) and non-AATD-related COPD. Preparation of specimens of urine and sputum and measurements by mass spectrometry (LC/MS) were performed as previously described in Ma S, Lieberman S, Turino G M and Lin Y Y: The detection and quantitation of free desmosine and isodesmosine in human urine and their peptide-bound forms in sputum. PNAS 2003, 100:12941-12943, which is incorporated by reference as if recited in full herein. D and I standard (mixed 50% D and 50% I) were purchased from Elastin Products (Owensville, Mich.), and all other reagents were from Sigma (St. Louis, Mo.). MCX cation exchange cartridges (3 ml) were obtained from Waters (Milford, Mass.), and CF1 cellulose powders were purchased from Whatman (Clifton, N.J.).
Urine samples. Twenty-four hour urine samples were collected and analyzed as previously described in Ma S, et al., 2003.
Plasma samples. Plasma samples were obtained after centrifuging venous blood specimens at 2500 r.p.m. for 25 min. Samples were stored at −20 C until used. One ml of plasma and 1 ml of concentrated HCl (37%) were placed in a glass vial. After air in the sample was displaced with a stream of nitrogen, the sample was acid hydrolyzed for 24 hours in 6N HCl. After evaporation to dryness, the residue was dissolved in 2 ml of a mixed solution of n-butanol/acetic acid/6 N HCl (4:1:1, by volume). The sample solution was loaded onto a 3 ml CF1 cartridge. The CF1 cartridge was prepared by introducing 3 ml of the slurry of 5% CF1 cellulose powder in a mixture of n-butanol/acetic acid/water (4:1:1, by volume). The cartridge was washed 3 times with 3 ml of n-butanol/acetic acid/water mixture, and D and I adsorbed in the CF1 cartridge were eluted with 3 ml of water. The eluate was evaporated to dryness under vacuum at 45° C. and the residue was dissolved in 0.1 ml of HPLC mobile phase for LC/MS analysis. For analysis in plasma, samples were processed and measured in duplicate and the results averaged.
Sputum Samples. Sputum samples were processed as previously described in Ma S, et al., 2003 with the following modification: The acid hydrolyzed samples were chromatographed using a CF1 cartridge as described in the treatment of plasma samples. Each sputum sample was processed and measured in duplicate and the results averaged. Sputum was obtained from 3-hour morning collections spontaneously produced. When subjects could not voluntarily produce sputum, sputum induction was induced by 3% saline inhalation for 20 minutes as previously described in Ma S, et al., 2003.
COPD patients have elevated levels of D/I in plasma, urine and sputum, which might respond to prolonged bronchodilation. […] Other anticholinergic bronchodilators were stopped prior to TIO, and other therapies/disease treatments were unchanged for the two months of study. To these patients, 18 mcg TIO was administered each 24 hours. D/I in plasma, urine and sputum were measured by liquid chromatography and mass spectrometry (LC/MS) prior to the study and at one month and two months after the study.

COPD patients = test: Spirometry in post-TIO therapy patients; assay type: in vivo, human; details: most post-TIO therapy patients
Description: COPD patients have elevated levels of D/I in plasma, urine and sputum, which might respond to prolonged bronchodilation. To determine if clinical effects of Tiotropium (TIO) affect tissue degradation of the lung in COPD, clinically stable patients with COPD (n=9) not on TIO prior to the study and at one month and a second month after initiating therapy were tested. Other anticholinergic bronchodilators were stopped prior to TIO, and other therapies/disease treatments were unchanged for the two months of study. To these patients, 18 mcg TIO was administered each 24 hours. D/I in plasma, urine and sputum were measured by liquid chromatography and mass spectrometry (LC/MS) prior to the study and at one month and two months after the study.
The improvement in spirometric indices were usually concordant with levels of D/I in patients.

## C[N+]1(C)[C@@H]2C[C@@H](OC(=O)C(O)(c3cccs3)c3cccs3)C[C@H]1[C@@H]1O[C@@H]12 [Tiotropium]
Lung elastin degradation; COPD patients, 18 mcg TIO each 24 hours, one and two months, plasma, LC/MS
  Significant decreases in D/I levels in plasma (patients showing decrease): 10 out of 12
Lung elastin degradation; COPD patients, 18 mcg TIO each 24 hours, one and two months, sputum, LC/MS
  Significant decreases in D/I levels in sputum (patients showing decrease): all 12 patients
Lung elastin degradation; COPD patients, 18 mcg TIO each 24 hours, one and two months, urine, LC/MS
  Significant decreases in D/I levels in urine (patients showing decrease): 10 out of 12
Lung elastin degradation; COPD patients, one month vs second month of TIO
  Calculated percentage decreases in D/I levels after TIO treatment, time course: decreases beginning after one month with further decreases observed in the second month
Lung elastin degradation; COPD patients, two months of TIO
  D/I levels in plasma, urine and sputum after two months of treatment: significant reductions
Lung elastin degradation; all 12 COPD patients, prolonged TIO treatment
  Lung elastin degradation, overall response from percent decreases in D/I levels: some decrease in lung elastin degradation
COPD patients
  Force Vital Capacity (FVC): significant increase
  Forced Expired Volume in 1 second (FEV1): significant increase
  Residual Volume (RV): decreases
  ratio of FEV1/FVC: significant increase
